Laboratory results as given in patent publication US8779004B2, “Stable emulsion formulations” (Amgen, Inc., priority 2006, dated 2014).

Experiment: Short-term storage stability of emulsions (drug conc., pH, particle size)
Format: physicochemical
Conditions: for stability in the emulsion formulation: over 12 weeks, 5° C. and 40° C.; for Cinacalcet conc. / D(4, 3) / pH: emulsion
Source text: This Example illustrates the effect of the storage temperature on short-term stability of the formulations of the invention as measured by pH and the size of the droplets. The results of short term stability of cinacalcet at different temperatures and varying TRIS buffer concentrations are presented in Table 8. Cinacalcet was stable in the emulsion formulation over 12 weeks. The pH of the emulsion is lower over time for both placebo and cinacalcet emulsions. The drop in pH is less at lower storage temperature and higher TRIS concentration.
The results of short-term stability of cinacalcet at different temperatures and varying DEA buffer concentrations are presented in Table 9. Cinacalcet was stable in the emulsion formulation over 12 weeks. pH of the emulsion is lower over time for both placebo and cinacalcet emulsion. The drop in pH is less at lower storage temperature and higher DEA concentration.

Structure (SMILES): C[C@@H](NCCCc1cccc(C(F)(F)F)c1)c1cccc2ccccc12 [Cinacalcet, N-(1-(R)-(1-naphthyl)ethyl]-3-[3-(trifluoromethyl)phenyl]-1-aminopropane]
- stability in the emulsion formulation (DEA buffered emulsion): stable
- stability in the emulsion formulation (TRIS buffered emulsion): stable
- Cinacalcet conc. (DEA 0.05%, 5° C., 0 weeks): 4.42 mg/mL
- D(4, 3) (DEA 0.05%, 5° C., 0 weeks): 0.39 µm
- pH (DEA 0.05%, 5° C., 0 weeks): 8.77
- Cinacalcet conc. (DEA 0.05%, 5° C., 2 weeks): 4.14 mg/mL
- D(4, 3) (DEA 0.05%, 5° C., 2 weeks): 0.39 µm
- pH (DEA 0.05%, 5° C., 2 weeks): 8.64
- Cinacalcet conc. (DEA 0.05%, 5° C., 4 weeks): 4.35 mg/mL
- D(4, 3) (DEA 0.05%, 5° C., 4 weeks): 0.4 µm
- pH (DEA 0.05%, 5° C., 4 weeks): 8.65
- Cinacalcet conc. (DEA 0.05%, 5° C., 6 weeks): 4.28 mg/mL
- D(4, 3) (DEA 0.05%, 5° C., 6 weeks): 0.76 µm
- pH (DEA 0.05%, 5° C., 6 weeks): 8.59
- Cinacalcet conc. (DEA 0.05%, 5° C., 8 weeks): 4.43 mg/mL
- D(4, 3) (DEA 0.05%, 5° C., 8 weeks): 0.4 µm
- pH (DEA 0.05%, 5° C., 8 weeks): 8.67
- Cinacalcet conc. (DEA 0.05%, 5° C., 12 weeks): 4.29 mg/mL
- D(4, 3) (DEA 0.05%, 5° C., 12 weeks): 0.4 µm
- pH (DEA 0.05%, 5° C., 12 weeks): 8.58
- Cinacalcet conc. (DEA 0.05%, 40° C., 0 weeks): 4.42 mg/mL
- D(4, 3) (DEA 0.05%, 40° C., 0 weeks): 0.39 µm
- pH (DEA 0.05%, 40° C., 0 weeks): 8.77
- Cinacalcet conc. (DEA 0.05%, 40° C., 2 weeks): 4.15 mg/mL
- D(4, 3) (DEA 0.05%, 40° C., 2 weeks): 0.39 µm
- pH (DEA 0.05%, 40° C., 2 weeks): 8.46
- Cinacalcet conc. (DEA 0.05%, 40° C., 4 weeks): 4.30 mg/mL
- D(4, 3) (DEA 0.05%, 40° C., 4 weeks): 0.4 µm
- pH (DEA 0.05%, 40° C., 4 weeks): 8.36
- Cinacalcet conc. (DEA 0.05%, 40° C., 6 weeks): 4.28 mg/mL
- D(4, 3) (DEA 0.05%, 40° C., 6 weeks): 0.39 µm
- pH (DEA 0.05%, 40° C., 6 weeks): 8.25
- Cinacalcet conc. (DEA 0.05%, 40° C., 8 weeks): 4.39 mg/mL
- D(4, 3) (DEA 0.05%, 40° C., 8 weeks): 0.43 µm
- pH (DEA 0.05%, 40° C., 8 weeks): 8.29
- Cinacalcet conc. (DEA 0.05%, 40° C., 12 weeks): 4.31 mg/mL
- D(4, 3) (DEA 0.05%, 40° C., 12 weeks): 0.43 µm
- pH (DEA 0.05%, 40° C., 12 weeks): 8.12
- Cinacalcet conc. (DEA 0.30%, 5° C., 0 weeks): 4.78 mg/mL
- D(4, 3) (DEA 0.30%, 5° C., 0 weeks): 0.36 µm
- pH (DEA 0.30%, 5° C., 0 weeks): 9.12
- Cinacalcet conc. (DEA 0.30%, 5° C., 2 weeks): 4.60 mg/mL
- D(4, 3) (DEA 0.30%, 5° C., 2 weeks): 0.35 µm
- pH (DEA 0.30%, 5° C., 2 weeks): 9.07
- Cinacalcet conc. (DEA 0.30%, 5° C., 4 weeks): 4.67 mg/mL
- D(4, 3) (DEA 0.30%, 5° C., 4 weeks): 0.37 µm
- pH (DEA 0.30%, 5° C., 4 weeks): 9.12
- Cinacalcet conc. (DEA 0.30%, 5° C., 6 weeks): 4.60 mg/mL
- D(4, 3) (DEA 0.30%, 5° C., 6 weeks): 0.37 µm
- pH (DEA 0.30%, 5° C., 6 weeks): 9.11
- Cinacalcet conc. (DEA 0.30%, 5° C., 8 weeks): 4.79 mg/mL
- D(4, 3) (DEA 0.30%, 5° C., 8 weeks): 0.37 µm
- pH (DEA 0.30%, 5° C., 8 weeks): 9.15
- Cinacalcet conc. (DEA 0.30%, 5° C., 12 weeks): 4.66 mg/mL
- D(4, 3) (DEA 0.30%, 5° C., 12 weeks): 0.36 µm
- Cinacalcet conc. (DEA 0.30%, 40° C., 0 weeks): 4.78 mg/mL
- D(4, 3) (DEA 0.30%, 40° C., 0 weeks): 0.36 µm
- pH (DEA 0.30%, 40° C., 0 weeks): 9.12
- Cinacalcet conc. (DEA 0.30%, 40° C., 2 weeks): 4.58 mg/mL
- D(4, 3) (DEA 0.30%, 40° C., 2 weeks): 0.36 µm
- pH (DEA 0.30%, 40° C., 2 weeks): 8.98
- Cinacalcet conc. (DEA 0.30%, 40° C., 4 weeks): 4.73 mg/mL
- D(4, 3) (DEA 0.30%, 40° C., 4 weeks): 0.36 µm
- pH (DEA 0.30%, 40° C., 4 weeks): 8.99
- Cinacalcet conc. (DEA 0.30%, 40° C., 6 weeks): 4.65 mg/mL
- D(4, 3) (DEA 0.30%, 40° C., 6 weeks): 0.36 µm
- pH (DEA 0.30%, 40° C., 6 weeks): 8.93
- Cinacalcet conc. (DEA 0.30%, 40° C., 8 weeks): 4.83 mg/mL
- D(4, 3) (DEA 0.30%, 40° C., 8 weeks): 0.37 µm
- pH (DEA 0.30%, 40° C., 8 weeks): 8.95
- Cinacalcet conc. (DEA 0.30%, 40° C., 12 weeks): 4.71 mg/mL
- D(4, 3) (DEA 0.30%, 40° C., 12 weeks): 0.38 µm
